Source: article PMC8929329, “The pharmaceutical excipient PEG400 affect the absorption of baicalein in Caco‐2 monolayer model by interacting with UDP‐glucuronosyltransferases and efflux transport proteins” (Pharmacology Research & Perspectives, 2022)
Read-outs that look alike come from different tables or passages of the source.

Legend:
UGT1A8 = experiment: Enzyme activity assay, intestinal microsome incubation: baicalein glucuronidation to B6G; assay type: in vitro ADME, human
Experimental: (§1) In this experiment, the effect of PEG400 on the enzyme activities of UGT1A8 and UGT1A9 was evaluated by in vitro microsome incubation. The activity of UGT1A8 and UGT1A9 was determined by detecting the production of BG and B6G with B as substrate.
(§2) The incubation system contained 10 µl of 50 mM Tris‐HCl (pH 7.4) buffer, 10 µl of 5 mM MgCl2 solution, 10 µl of 0.2 mg/ml alamethicin (Aladdin Biochemical Technology), and 20 µl of intestinal microsomes (Xenotech). The incubation system was pre‐incubated on ice for 15 min prior to experiment. Then, added 20 µl baicalein (dissolved in 50 mM Tris‐HCl) and PEG400 (20 µl) or 50 mM Tris‐HCl (20 µl) to the incubation system. The reaction was initiated by adding 5 mM UDPGA (10 µl) and incubated at 37°C for 15 min. The whole reaction was operated in a 1.5 ml centrifuge tube. Finally, the reaction was terminated by adding cold acetonitrile (100 µl) containing the genistein (IS). All solutions were thoroughly mixed for 3 min, then the mixture was centrifuged at 4°C at 16,000g for 15 min to precipitate the proteins completely. The supernatant was transferred and 10 µl was injected into the UPLC‐MS/MS system.
(§3) Kinetics parameters were obtained by fitting the data with Michaelis‐Menten equation (Equation 5) using […] GraphPad Prism® 9. (5) v=Vmax×s/Km+s where v (nmol/min/mg) is the velocity of metabolite formation, V max (nmol/min/mg) is the maximum velocity, K m (µM) is the Michaelis constant defined as the substrate concentration at half of V max, [S] (µM) is the substrate concentration

UGT1A9 = experiment: Enzyme activity assay, intestinal microsome incubation: baicalein glucuronidation to BG; assay type: in vitro ADME, human; details: BG formation (UGT1A9)
Experimental: as §1, §2, §3

Caco-2 cell monolayer = experiment: Permeation experiments on Caco-2 cell monolayer (two-way transport); assay type: in vitro ADME, human
Experimental: (§4) Cell culture was performed as previously described.[15] For transport experiments, Caco-2 cells from passage number 20-30 were seeded at a density of 2 × 10^5 cells per well on transwell plate (a solid insert for cell culture contains porous permeable polycarbonate membrane) with polycarbonate membranes using a blood-counting chamber (QIU JING®). A 0.5 ml of culture medium with cells was added to the apical side (AP) and 1.5 ml of blank culture medium was added to the basolateral side (BL). During the incubation period, the medium on the AP and BL sides were changed every 2 days in the first week, and every day after a week until the 21st day. The permeation of samples was assessed in both directions at different concentrations. This experiment assessed the influence of different concentrations (%, v/v) of PEG400 on the permeation process of B, BG, and […]. […] Caco-2 cell monolayers with qualified monolayer membrane integrity were used for drug permeability experiments. Aspirated and discarded the original culture medium in the transwell plate, added pre-warmed (37°C) HBSS to wash 3 times, put it in the incubator for the last time and incubated for 30 min. […] For the AP-BL permeability (absorptive transport study), add 0.5 ml of samples (dissolved in HBSS) to the apical side (AP) as a supply chamber, and add 1.5 ml of pre-warmed HBSS to the basolateral side (BL) as a receiving chamber. Alternatively, in the permeation direction of BL-AP compartment (secretive transport study), add 1.5 ml of samples (dissolved in HBSS) to the BL side as a supply chamber, and add 0.5 ml of pre-warmed HBSS to the AP side as a receiving chamber. After the above steps, put the transwell plate on the thermostatic oscillator (Changzhou Wanhe Instrument Manufacturing Co., Ltd.) at 60 r/min. And sample 100 μl from the receiving pool or 10 μl from the supply chamber at 30, 60, 90, and 120 min depending on the experiment, and make up the same volume of blank pre-warmed HBSS. The sample taken from the transwell plate was precipitated with the 100 μl of methanol to precipitate the protein. After centrifugation at 16 000g for 15 min at 4°C, 70 μl of the supernatant was taken. And the content was determined by UPLC-MS/MS method to calculate the apparent permeability coefficient (P app) and efflux ratio (ER). The P app and ER of Caco-2 monolayers was measured and calculated as Equations ((2), (3), (4)): (2) Papp=dQ/dt/AC0 Where ΔQ/Δt (ng/ml·s) is the rate of permeability (ng/ml·s for B, BG, […]); A is for the membrane area (1.12 cm^2); C 0 (ng/ml/for B, BG, […]) is the initial concentration of the sample in the supply chamber. The apparent permeability might need to be corrected because of the effect of the marked amount of baicalein glucuronide.[17] Thus, the corrected permeability was calculated from the total rate of drug transport and the glucuronide excretion rate of bidirectional side divided by the membrane area (A) of the monolayer and the initial concentration of baicalein at the loading side (C 0): (3) Pcorrected=dQ/dt+Aex+Bex/AC0 (4) […] - BL Where P appBL-AP is the apparent permeability coefficient when the sample is added on the basolateral side; […]-BL is the apparent permeability coefficient when the sample is added on the apical side.

[1] = as above; assay type: in vitro ADME, human; details: human, read-out: corrected apparent permeability (Pcorrected); for Papp at 120 min, 5 μM: baicalein 5 μM; for Papp at 120 min, 15 μM: baicalein 15 μM
Experimental: as §4

Stability study in HBSS = assay type: physicochemical; details: 37°C, 2 h
Experimental: The test was carried out by measuring the content of B, BG, and B6G before and after keeping in the HBSS solution at 37°C for 2 h. The time interval was selected according to the permeation experiment. The differences between the contents of the three samples before or after the incubation were calculated and expressed as the percentage of B, BG, and B6G remaining.

[2] = B6G formation (UGT1A8), 0.25% PEG400
[3] = B6G formation (UGT1A8), 0.5% PEG400
[4] = B6G formation (UGT1A8), 1% PEG400
[5] = B6G formation (UGT1A8), Control

Compound: O=c1cc(-c2ccccc2)oc2cc(O)c(O)c(O)c12 [B, baicalein]
- K m (UGT1A8; [2]): 28.44 ± 8.34 µM
- V max (UGT1A8; [2]): 4.54 ± 0.40 nmol/min/mg protein
- K m (UGT1A8; B6G formation (UGT1A8), 0.25% PEG400, listed as baicalein): 28.44 ± 8.34 µM
- K m (UGT1A8; [3]): 38.86 ± 3.76 µM
- V max (UGT1A8; [3]): 6.68 ± 0.29 nmol/min/mg protein
- K m (UGT1A8; [4]): 194.73 ± 48.82 µM
- V max (UGT1A8; [4]): 24.78 ± 4.67 nmol/min/mg protein
- K m (UGT1A8; B6G formation (UGT1A8), 1% PEG400, listed as baicalein): 194.73 ± 48.82 µM
- K m (UGT1A8; [5]): 43.33 ± 2.63 µM
- V max (UGT1A8; [5]): 4.64 ± 0.11 nmol/min/mg protein
- V max (UGT1A8; UGT1A8, 0.25%PEG400): 4.54 ± 0.4 nmol/min/mg
- V max (UGT1A8; UGT1A8, 0.5% PEG400): 6.68 ± 0.29 nmol/min/mg
- V max (UGT1A8; UGT1A8, 1% PEG400): 24.8 ± 4.67 nmol/min/mg
- V max (UGT1A8; UGT1A8, no PEG400): 4.64 ± 0.11 nmol/min/mg
- K m (UGT1A9; 0.25% PEG400): 14.34 ± 1.92 µM
- K m (UGT1A9; 0.25% PEG400, listed as baicalein): 14.34 ± 1.92 µM
- K m (UGT1A9; 0.5% PEG400): 18.26 ± 3.61 µM
- K m (UGT1A9; 1% PEG400): 28.30 ± 3.33 µM
- K m (UGT1A9; 1% PEG400, listed as baicalein): 28.30 ± 3.33 µM
- K m (UGT1A9; Control): 22.05 ± 3.74 µM
- permeation within 2 h compared with the control group (Caco-2 cell monolayer; AL-BL experiment, baicalein 10 μM loaded with 0.5% (v/v) PEG400): significantly decreased
- penetration within 2 h compared with the control group (Caco-2 cell monolayer; BL-AP experiment, baicalein 10 μM loaded with 0.5% (v/v) PEG): decreased significantly
- Papp at 120 min, 10 μM ([1]; Caco-2, 10 μM B loaded on AP side, 0.25% 1% PEG400 group): 99.7 ×10⁻⁶ cm/s
- Papp at 120 min, 10 μM ([1]; Caco-2, 10 μM B loaded on AP side, 0.25% PEG400 group): 100 ×10⁻⁶ cm/s
- Papp at 120 min, 10 μM ([1]; Caco-2, 10 μM B loaded on AP side, 0.5% PEG400 group): 94.7 ×10⁻⁶ cm/s
- Papp at 120 min, 5 μM ([1]; Caco-2, AP-BL): 73.2 ×10⁻⁶ cm/s
- Papp at 120 min, 10 μM ([1]; Caco-2, AP-BL, baicalein 10 μM): 78.4 ×10⁻⁶ cm/s
- Papp at 120 min, 15 μM ([1]; Caco-2, AP-BL): 53.5 ×10⁻⁶ cm/s
- Papp at 120 min, 10 μM ([1]; Caco-2, BL-AP, 10 μM B, 0.25% PEG400 group): 186 ×10⁻⁶ cm/s
- Papp at 120 min, 10 μM ([1]; Caco-2, BL-AP, 10 μM B, 0.5% PEG400 group): 159 ×10⁻⁶ cm/s
- Papp at 120 min, 10 μM ([1]; Caco-2, BL-AP, 10 μM B, 1% PEG400 group): 135 ×10⁻⁶ cm/s
- Papp at 120 min, 5 μM ([1]; Caco-2, BL-AP): 120 ×10⁻⁶ cm/s
- Papp at 120 min, 10 μM ([1]; Caco-2, BL-AP, baicalein 10 μM): 163 ×10⁻⁶ cm/s
- Papp at 120 min, 15 μM ([1]; Caco-2, BL-AP): 105 ×10⁻⁶ cm/s
- Stability (percentage remaining) (Stability study in HBSS; 150 ng ml^−1): 98.11 ± 3.85%
- Stability (percentage remaining) (Stability study in HBSS; 300 ng ml^−1): 99.70 ± 5.23%
- Stability (percentage remaining) (Stability study in HBSS; 600 ng ml^−1): 98.43 ± 7.23%
